Like-named read-outs stand apart in the source and are kept apart here.
Experiments:
[1] = system: phospho-ERK1/2 (Thr202/Tyr204) in KYSE-520 cells; experiment: Phospho-ERK cellular assay (TR-FRET); format: cell-based; conditions: KYSE-520 cells, 2 h at 37° C., read-out: pERK IC50
Protocol: ERK phosphorylation was detected using the “Advanced phospho-ERK1/2 (Thr202/Tyr204)” TR-FRET kit (Cisbio, Cat #64AERPEG/H), following the manufacturer reagents and instructions.
Briefly, 20.000/well KYSE-520 cells (DSMZ ACC 371) were plated in 6 μL RPMI-1640 (Invitrogen) growth medium, into 384 white low-volume high base TC microplates (Greiner). After an overnight incubation, cells were treated with DMSO serial diluted compounds and incubated for 2 h at 37° C. After incubation, 2 μL/well of 4X Lysis Buffer (Cisbio 64KL1FDF), were added and incubated with cells for 30 min on gentle shaking. Finally, lysates were added with 2 μL/well of Eu cryptate (donor) and D2 (acceptor) conjugated antibodies (as provided by the Cisbio kit #64AERPEG/H) diluted 1:100 in Detection Buffer (as provided by the Cisbio kit #64AERPEG/H). Plates were then sealed and incubated at rt in the dark. After an overnight incubation, the TR-FRET signal was detected on a suitable reader (Envision, PerkinElmer). The lower the TR-FRET signal the higher the higher the SHP2 inhibition in cells.
The activity of each compound dilution was calculated as percentage between vehicle DMSO treated cells and no cells, 0% inhibition and 100% inhibition respectively. The percentage activity is fitted against the compound dilutions with a four-parameter logistic regression. The inflection point (i.e. the concentration at which half-maximal inhibition is achieved) is the IC50.

[2] = target: T1, SHP-2 enzyme (Met1-Leu525) (Homo sapiens, UniProt Q06124); experiment: SHP2 inhibition enzymatic assay (DiFMUP substrate, IRS1 peptide activation); format: biochemical; conditions: 0.5 nM SHP-2, 500 nM IRS1 peptide, 75 μM DiFMUP; read-out: SHP2wt - IC50
T1 construct: synthetized by Origene, Met1-Leu525, cat #TP750155; purchased Origene TP750155
T1 sequence (Q06124 1-525): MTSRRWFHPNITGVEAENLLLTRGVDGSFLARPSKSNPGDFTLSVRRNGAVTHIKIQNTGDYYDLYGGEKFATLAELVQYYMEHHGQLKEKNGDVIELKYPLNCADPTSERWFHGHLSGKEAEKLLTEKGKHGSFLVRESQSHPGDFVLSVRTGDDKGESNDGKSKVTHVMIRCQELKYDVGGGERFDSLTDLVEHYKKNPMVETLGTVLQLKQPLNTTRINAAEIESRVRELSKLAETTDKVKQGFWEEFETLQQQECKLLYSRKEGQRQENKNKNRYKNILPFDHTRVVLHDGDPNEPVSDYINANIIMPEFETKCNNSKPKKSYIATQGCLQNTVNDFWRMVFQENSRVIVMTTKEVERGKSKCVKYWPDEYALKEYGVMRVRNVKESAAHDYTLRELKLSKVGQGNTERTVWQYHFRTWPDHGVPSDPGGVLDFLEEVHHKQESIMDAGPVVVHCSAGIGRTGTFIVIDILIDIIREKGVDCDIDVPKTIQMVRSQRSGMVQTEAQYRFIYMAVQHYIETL
Protocol: Assay volume of 20 μL/well was assembled in 384 well black polystyrene low-binding microplates (Greiner), using the following buffer: 60 mM HEPES pH 7.2, 75 mM NaCl, 75 mM KCl, 1 mM EDTA pH 8, 0.05% tween-20, 5 mM DTT. The SHP-2 enzyme (synthetized by Origene, Met1-Leu525, cat #TP750155) was used at a final concentration of 0.5 nM.
Briefly, DMSO serially diluted testing compounds were transferred to the bottom of the assay plate. SHP2 was then added together with the IRS1 peptide 30 min post incubation, the DiFMUP substrate was added to the reaction and incubated 30 min at rt. […] The fluorescence was detected by a microplate reader (Envision, PerkinElmer) according to the DiFMUP excitation and emission wavelength. The lower the fluorescence the higher the SHP2 inhibition.
The percentage inhibition is fitted against the compound dilutions with a four-parameter logistic regression. The inflection point (i.e. the concentration at which half-maximal inhibition is achieved) is the IC50.

Compound | IC50 ([1]; Homo sapiens, KYSE-520, 2 h) [nM] | IC50 [2] [nM] | IC50 [1] [nM]
N[C@@H]1c2ccnn2CC12CCN(c1nc3nc(Sc4cccnc4C(F)(F)F)cnc3[nH]1)CC2 [Example 1, (S)-1-(5-((2-(trifluoromethyl)pyridin-3-yl)thio)-1H-imidazo[4,5-b]pyrazin-2-yl)-4′H,6′H-spiro[piperidine-4,5′-pyrrolo[1,2-b]pyrazol]-4′-amine] | > 500 | ≤ 50 | –
N[C@@H]1c2ccnn2CC12CCN(c1ncc(Sc3ccn4ccnc4c3Cl)n3cncc13)CC2 [Example 32, (S)-1-(5-((8-chloroimidazo[1,2-a]pyridin-7-yl)thio)imidazo[1,5-a]pyrazin-8-yl)-4′H,6′H-spiro[piperidine-4,5′-pyrrolo[1,2-b]pyrazol]-4′-amine] | 100 to 500 | ≤ 50 | –
Nc1cnc(Sc2cnc(N3CCC4(CC3)Cn3nccc3[C@H]4N)cn2)c(Cl)n1 [Example 47, (S)-1-(5-((5-amino-3-chloropyrazin-2-yl)thio)pyrazin-2-yl)-4′H,6′H-spiro[piperidine-4,5′-pyrrolo[1,2-b]pyrazol]-4′-amine] | < 100 | ≤ 50 | –
Nc1nccc(Sc2cnc(N3CCC4(CC3)Cn3nc5c(c3C4O)CCC5)c3cncn23)c1Cl (stereo not shown) [Example 22, 1′-(5-((2-amino-3-chloropyridin-4-yl)thio)imidazo[1,5-a]pyrazin-8-yl)-1,2,3,8-tetrahydro-6H-spiro[cyclopenta[d]pyrrolo[1,2-b]pyrazole-7,4′-piperidin]-8-ol] | > 500 | > 300 | –
Cc1cc(C)n(-c2nccc(Sc3cnc(N4CCC5(CC4)Cn4nccc4[C@H]5N)cn3)c2Cl)n1 [Example 34, (S)-1-(5-((3-chloro-2-(3,5-dimethyl-1H-pyrazol-1-yl)pyridin-4-yl)thio)pyrazin-2-yl)-4′H,6′H-spiro[piperidine-4,5′-pyrrolo[1,2-b]pyrazol]-4′-amine] | < 100 | ≤ 50 | –
N[C@@H]1c2ccnn2CC12CCN(c1ncc(Sc3ccnc4c3OC[C@@H]3CCCN43)c3nccn13)CC2 [Example 17, (S)-1-(8-(((S)-6a,7,8,9-tetrahydro-6H-pyrido[3,2-b]pyrrolo[1,2-d][1,4]oxazin-4-yl)thio)imidazo[1,2-c]pyrimidin-5-yl)-4′H,6′H-spiro[piperidine-4,5′-pyrrolo[1,2-b]pyrazol]-4′-amine] | < 100 | ≤ 50 | –
Nc1nccc(Sc2cnc3[nH]c(N4CCC5(CC4)Cn4nccc4[C@H]5N)nc3n2)c1Cl [Example 2, (S)-1-(5-((2-amino-3-chloropyridin-4-yl)thio)-1H-imidazo[4,5-b]pyrazin-2-yl)-4′H,6′H-spiro[piperidine-4,5′-pyrrolo[1,2-b]pyrazol]-4′-amine] | > 500 | ≤ 50 | –
N[C@@H]1c2c(F)cnn2CC12CCN(c1cnc(Sc3ccn4c(Cl)cnc4c3Cl)cn1)CC2 [Example 50, (S)-1-(5-((3,8-dichloroimidazo[1,2-a]pyridin-7-yl)thio)pyrazin-2-yl)-3′-fluoro-4′H,6′H-spiro[piperidine-4,5′-pyrrolo[1,2-b]pyrazol]-4′-amine] | < 100 | ≤ 50 | –
Cc1cnn2c1[C@@H](N)C1(CCN(c3cnc(Sc4ccnc(N)c4Cl)cn3)CC1)C2 [Example 10, (S)-1-(5-((2-amino-3-chloropyridin-4-yl)thio)pyrazin-2-yl)-3′-methyl-4′H,6′H-spiro[piperidine-4,5′-pyrrolo[1,2-b]pyrazol]-4′-amine] | < 100 | ≤ 50 | –
Nc1nccc(Sc2ccc(N3CCC4(CC3)Cn3nccc3[C@H]4N)nn2)c1Cl [Example 35, (S)-1-(6-((2-amino-3-chloropyridin-4-yl)thio)pyridazin-3-yl)-4′H,6′H-spiro[piperidine-4,5′-pyrrolo[1,2-b]pyrazol]-4′-amine] | 100 to 500 | ≤ 50 | –
Nc1nc(N2CCC3(CC2)Cn2nccc2[C@H]3N)cnc1Sc1cccnc1C(F)(F)F [Example 3, (S)-1-(6-amino-5-((2-(trifluoromethyl)pyridin-3-yl)thio)pyrazin-2-yl)-4′H,6′H-spiro[piperidine-4,5′-pyrrolo[1,2-b]pyrazol]-4′-amine] | < 100 | ≤ 50 | –
N[C@@H]1c2ccnn2CC12CCN(c1cnc(Sc3ccn4c(Cl)cnc4c3Cl)cn1)CC2 [Example 48, (S)-1-(5-((3,8-dichloroimidazo[1,2-a]pyridin-7-yl)thio)pyrazin-2-yl)-4′H,6′H-spiro[piperidine-4,5′-pyrrolo[1,2-b]pyrazol]-4′-amine] | < 100 | ≤ 50 | –
Nc1nccc(-c2n[nH]c3nc(N4CCC5(CC4)Cn4nccc4[C@H]5N)cnc23)c1Cl [Example 40, (S)-1-(3-(2-amino-3-chloropyridin-4-yl)-1H-pyrazolo[3,4-b]pyrazin-6-yl)-4′H,6′H-spiro[piperidine-4,5′-pyrrolo[1,2-b]pyrazol]-4′-amine] | < 100 | ≤ 50 | –

Results, then the molecule that gave them:

IC50 ([1]; Homo sapiens, KYSE-520, 2 h) [nM] | IC50 [2] [nM] | IC50 [1] [nM] | Compound
< 100 | ≤ 50 | – | N[C@@H]1c2ccnn2CC12CCN(c1cnc(Sc3ccc4nccn4c3Cl)cn1)CC2 [Example 56, (S)-1-(5-((5-chloroimidazo[1,2-a]pyridin-6-yl)thio)pyrazin-2-yl)-4′H,6′H-spiro[piperidine-4,5′-pyrrolo[1,2-b]pyrazol]-4′-amine]
< 100 | ≤ 50 | – | N#Cc1cn2ccc(Sc3cnc(N4CCC5(CC4)Cn4nccc4[C@H]5N)cn3)c(Cl)c2n1 [Example 57, (S)-7-((5-(4′-amino-4′H,6′H-spiro[piperidine-4,5′-pyrrolo[1,2-b]pyrazol]-1-yl)pyrazin-2-yl)thio)-8-chloroimidazo[1,2-a]pyridine-2-carbonitrile]
– | > 300 | > 500 | Cc1nc(N2CCC3(CC2)Cn2nccc2[C@H]3N)cc(=O)n1-c1cccc(Cl)c1Cl (single isomer, unassigned) [Example 77b]
< 100 | ≤ 50 | – | Nc1ccc(Sc2cnc(N3CCC4(CC3)Cn3nccc3[C@H]4N)cn2)c(Cl)n1 [Example 55, (S)-1-(5-((6-amino-2-chloropyridin-3-yl)thio)pyrazin-2-yl)-4′H,6′H-spiro[piperidine-4,5′-pyrrolo[1,2-b]pyrazol]-4′-amine]
< 100 | ≤ 50 | – | N[C@@H]1c2ccnn2CC12CCN(c1nccn3c(-c4cccc(Cl)c4Cl)ncc13)CC2 [Example 85, (S)-1-(3-(2,3-dichlorophenyl)imidazo[1,5-a]pyrazin-8-yl)-4′H,6′H-spiro[piperidine-4,5′-pyrrolo[1,2-b]pyrazol]-4′-amine]
< 100 | ≤ 50 | – | Cn1cc2c(Cl)c(-c3n[nH]c4nc(N5CCC6(CC5)Cn5nccc5[C@H]6N)cnc34)ccc2n1 [Example 70, (S)-1-(3-(4-chloro-2-methyl-2H-indazol-5-yl)-1H-pyrazolo[3,4-b]pyrazin-6-yl)-4′H,6′H-spiro[piperidine-4,5′-pyrrolo[1,2-b]pyrazol]-4′-amine]
100 to 500 | ≤ 50 | – | N[C@@H]1c2ccnn2CC12CCN(c1cnc(Sc3ccnc(-n4cccn4)c3Cl)c3cncn13)CC2 [Example 75, (S)-1-(8-((3-chloro-2-(1H-pyrazol-1-yl)pyridin-4-yl)thio)imidazo[1,5-a]pyrazin-5-yl)-4′H,6′H-spiro[piperidine-4,5′-pyrrolo[1,2-b]pyrazol]-4′-amine]
